For 22 compounds, IC50 results are on record in patent publication US11453683B1, “KRas G12D inhibitors” (Mirati Therapeutics, Inc., priority 2019, dated 2022).

Each structure is given as a SMILES string. Bounds are passed on as bounds.

The subject of this experiment is KRas G12D-mediated phosphorylation of ERK. As to the kind of experiment: Inhibition of KRas G12D-mediated phosphorylation of ERK in AGS cells. The note with it: Homo sapiens; AGS cells expressing G12D, 3 hours, phospho-ERK normalized to GAPDH. Format: cell-based. As for the experimental part: Cells were plated in tissue culture treated 96 well plates at a density of 40,000 cells/well and allowed to attach for 12-14 hours. Diluted compounds were then added in a final concentration of 0.5% DMSO. After 3 hours, the medium was removed, 150 μL of 4.0% formaldehyde was added and the plates incubated at room temperature for 20 minutes. The plates were washed with PBS, and permeabilized with 150 μL of ice cold 100% methanol for 10 minutes. Non-specific antibody binding to the plates was blocked using 100 μL Licor blocking buffer (Li-Cor Biotechnology, Lincoln Nebr.) for 1 hour at room temperature.
The amount of phospho-ERK was determined using an antibody specific for the phosphorylated form of ERK and compared to the amount of GAPDH. Primary antibodies used for the detection were added as follows: Phospho-ERK (Cell Signaling cs-9101) diluted 1:500 and GAPDH (Millipore MAB374) diluted 1:5000 in Licor block+0.05% Tween 20. The plates were incubated for 2 hours at room temperature. The plates were washed with PBS+0.05% Tween 20.
Secondary antibodies used to visualize primary antibodies were added as follows: Anti-rabbit-680 diluted 1:1000 and Anti-mouse-800 diluted 1:1000 both in Licor block+0.05% TweeN2O, and were incubated for 1 hour at room temperature. The plates were washed with PBS+0.05% Tween 20. A 100 μL aliquot of PBS was added to each well and the plates were read on a Li-Cor Odyssey CLX plate reader.
The phospho-ERK (Thr202/Tyr204 signal was normalized to the GAPDH signal for each well and percent of DMSO control values were calculated. IC50 values were generated using a 4-parameter fit of the dose response curve

Usually IC50 stands for the point on the concentration scale where inhibition reaches its midpoint. Low values mean inhibition by little substance, high ones a need for much substance. Take `[O-][S+]1CCC(Oc2nc(N3C[C@H]4CC[C@@H](C3)N4)c3cnc(-c4cc(O)cc5ccccc45)c(F)c3n2)CC1` (stereo partly drawn) [Example 82, 4-((4-((1R,5S)-3,8-diazabicyclo[3.2.1]octan-3-yl)-8-fluoro-7-(3-hydroxynaphthalen-1-yl)pyrido[4,3-d]pyrimidin-2-yl)oxy)tetrahydro-2H-thiopyran 1-oxide]: the 50% inhibitory concentration (IC50) is > 16700 nM.
The compound `C#Cc1cccc2cccc(-c3ncc4c(N5C[C@H]6CC[C@@H](C5)N6)nc(OCC56CCCN5CCC6)nc4c3F)c12` [Example 179, 4-((1R,5S)-3,8-diazabicyclo[3.2.1]octan-3-yl)-7-(8-ethynylnaphthalen-1-yl)-8-fluoro-2-((hexahydro-1H-pyrrolizin-7a-yl)methoxy)pyrido[4,3-d]pyrimidine] returned a concentration for half-maximal inhibition (IC50) of 71.2 nM.
With `CC(C)(C)[Si](C)(C)OCC1CCC2(COc3nc(N4C[C@H]5CC[C@@H](C4)N5)c4cnc(-c5cccc6cccc(Cl)c56)c(F)c4n3)CCCN12` (stereo partly drawn) [Example 64, 4-((1R,5S)-3,8-diazabicyclo[3.2.1]octan-3-yl)-2-((3-(((tert-butyldimethylsilyl)oxy)methyl)tetrahydro-1H-pyrrolizin-7a(5H)-yl)methoxy)-7-(8-chloronaphthalen-1-yl)-8-fluoropyrido[4,3-d]pyrimidine] the figure was 3970 nM; with `CN1CCC[C@H]1COc1nc(N2CC3CCC(C)(C2)N3)c2cnc(-c3cc(O)cc4ccccc34)c(F)c2n1` (stereo partly drawn) [Example 156, 4-(8-fluoro-4-(1-methyl-3,8-diazabicyclo[3.2.1]octan-3-yl)-2-(((S)-1-methylpyrrolidin-2-yl)methoxy)pyrido[4,3-d]pyrimidin-7-yl)naphthalen-2-ol bis(2,2,2-trifluoroacetate)], 1790 nM.
The compound `C#Cc1c(F)ccc2cc(O)cc(-c3ncc4c(N5C[C@H]6CC[C@@H](C5)N6)nc(OCC56CCCN5CCC6)nc4c3F)c12` [Example 232, 4-(4-((1R,5S)-3,8-diazabicyclo[3.2.1]octan-3-yl)-8-fluoro-2-((tetrahydro-1H-pyrrolizin-7a(5H)-yl)methoxy)pyrido[4,3-d]pyrimidin-7-yl)-5-ethynyl-6-fluoronaphthalen-2-ol] yielded an IC50 of 15.2 nM.
In turn, `CO[C@H]1CN2CCC[C@]2(COc2nc(N3CC4CCC(C3)N4)c3cnc(-c4cc(O)cc5cccc(F)c45)c(F)c3n2)C1` (stereo in doubt) [Example 406, 4-(4-((1R,5S)-3,8-diazabicyclo[3.2.1]octan-3-yl)-8-fluoro-2-((2-methoxytetrahydro-1H-pyrrolizin-7a(5H)-yl)methoxy)pyrido[4,3-d]pyrimidin-7-yl)-5-fluoronaphthalen-2-ol] came in with an IC50 of 440 nM.
The figure for `Fc1c(-c2cccc3cccc(Cl)c23)ncc2c(N3C[C@H]4CC[C@@H](C3)N4)nc(OCC34CCCCN3CCC4)nc12` (stereo partly drawn) [Example 54, 4-((1R,5S)-3,8-diazabicyclo[3.2.1]octan-3-yl)-7-(8-chloronaphthalen-1-yl)-8-fluoro-2-((hexahydroindolizin-8a(1H)-yl)methoxy)pyrido[4,3-d]pyrimidine] is > 16700 nM; for `Cc1cccc2cccc(-c3ncc4c(N5C[C@H]6CC[C@@H](C5)N6)nc(OCC56CCCN5CCC6)nc4c3F)c12` [Example 334, 4-((1R,5S)-3,8-diazabicyclo[3.2.1]octan-3-yl)-8-fluoro-7-(8-methylnaphthalen-1-yl)-2-((tetrahydro-1H-pyrrolizin-7a(5H)-yl)methoxy)pyrido[4,3-d]pyrimidine] it is 2910 nM.
The figure for `CN(C)C1CN(c2nc(N3C[C@H]4CC[C@@H](C3)N4)c3cnc(-c4cccc5cccc(Cl)c45)c(F)c3n2)C1` [Example 122, 1-(4-((1R,5S)-3,8-diazabicyclo[3.2.1]octan-3-yl)-7-(8-chloronaphthalen-1-yl)-8-fluoropyrido[4,3-d]pyrimidin-2-yl)-N,N-dimethylazetidin-3-amine] is > 16700 nM; for `CN1CCC[C@H]1COc1nc(N2C[C@H]3CC[C@@H](C2)N3)c2cnc(-c3cccc4cccc(Cl)c34)c(F)c2n1` [Example 132, 4-((1R,5S)-3,8-diazabicyclo[3.2.1]octan-3-yl)-7-(8-chloronaphthalen-1-yl)-8-fluoro-2-(((S)-1-methylpyrrolidin-2-yl)methoxy)pyrido[4,3-d]pyrimidine] it is 2560 nM; for `Fc1c(-c2cccc3cccc(Cl)c23)ncc2c(N3CC4CC(F)C(C3)N4)nc(OC[C@@]34CCCN3C[C@H](F)C4)nc12` (stereo partly shown) [Example 396, 7-(8-chloronaphthalen-1-yl)-8-fluoro-4-(6-fluoro-3,8-diazabicyclo[3.2.1]octan-3-yl)-2-((2-fluorotetrahydro-1H-pyrrolizin-7a(5H)-yl)methoxy)pyrido[4,3-d]pyrimidine] it is 8170 nM.
The figure for `O[C@@H]1C[C@@H]2CN(c3nc(N4CCC4)nc4c(F)c(-c5cccc6cccc(Cl)c56)ncc34)C[C@H]1N2` [Example 152, (1R,5R,6R)-3-(2-(azetidin-1-yl)-7-(8-chloronaphthalen-1-yl)-8-fluoropyrido[4,3-d]pyrimidin-4-yl)-3,8-diazabicyclo[3.2.1]octan-6-ol] is > 50000 nM.
In turn, `Fc1c(-c2cccc3c2CC2CC32)ncc2c(N3CC4CCC(C3)N4)nc(OC[C@@]34CCCN3C[C@H](F)C4)nc12` (stereo partly drawn) [Example 438, 4-(3,8-diazabicyclo[3.2.1]octan-3-yl)-8-fluoro-2-(((2R,7aS)-2-fluorotetrahydro-1H-pyrrolizin-7a(5H)-yl)methoxy)-7-(1,1a,6,6a-tetrahydrocyclopropa[a]inden-5-yl)pyrido[4,3-d]pyrimidine] had a concentration for half-maximal inhibition (IC50) of 1630 nM.
The figure for `CN(C)C(=O)OC[C@H]1CC[C@@]2(COc3nc(N4CC5CCC(C4)N5)c4cnc(-c5cccc6cccc(Cl)c56)c(F)c4n3)CCCN12` [Example 405, (7a-(((4-(3,8-diazabicyclo[3.2.1]octan-3-yl)-7-(8-chloronaphthalen-1-yl)-8-fluoropyrido[4,3-d]pyrimidin-2-yl)oxy)methyl)hexahydro-1H-pyrrolizin-3-yl)methyl dimethylcarbamate] is 297 nM; for `Oc1cc(-c2ncc3c(N4C[C@H]5CC[C@@H](C4)N5)nc(OC[C@@H]4CC5CCN4C5)nc3c2F)c2ccccc2c1` [Example 40, 4-(2-(((2S)-1-azabicyclo[2.2.1]heptan-2-yl)methoxy)-4-((1R,5S)-3,8-diazabicyclo[3.2.1]octan-3-yl)-8-fluoropyrido[4,3-d]pyrimidin-7-yl)naphthalen-2-ol] it is 4240 nM; for `Cc1ccc(O)cc1-c1ncc2c(N3C[C@H]4CC[C@@H](C3)N4)nc(OCC34CCCN3CCC4)nc2c1F` [Example 256, 3-(4-((1R,5S)-3,8-diazabicyclo[3.2.1]octan-3-yl)-8-fluoro-2-((hexahydro-1H-pyrrolizin-7a-yl)methoxy)pyrido[4,3-d]pyrimidin-7-yl)-4-methylphenol] it is > 16700 nM.
The figure for `Fc1c(-c2ccccc2C(F)(F)F)ncc2c(N3C[C@H]4CC[C@@H](C3)N4)nc(OCC34CCCN3CCC4)nc12` [Example 370, 4-((1R,5S)-3,8-diazabicyclo[3.2.1]octan-3-yl)-8-fluoro-2-((tetrahydro-1H-pyrrolizin-7a(5H)-yl)methoxy)-7-(2-(trifluoromethyl)phenyl)pyrido[4,3-d]pyrimidine] is 10700 nM; for `CN1CCC[C@H]1COc1nc(N2C[C@H]3CC[C@@H](C2)N3)c2cnc(-c3cccc4c3C(C)(C)CC4)c(F)c2n1` [Example 161, 4-((1R,5S)-3,8-diazabicyclo[3.2.1]octan-3-yl)-7-(3,3-dimethyl-2,3-dihydro-1H-inden-4-yl)-8-fluoro-2-(((S)-1-methylpyrrolidin-2-yl)methoxy)pyrido[4,3-d]pyrimidine bis(2,2,2-trifluoroacetate)] it is > 16700 nM; for `C#Cc1cccc2cc(O)cc(-c3ncc4c(N5C[C@H]6CC[C@@H](C5)N6)ncnc4c3F)c12` [Example 244, 4-(4-((1R,5S)-3,8-diazabicyclo[3.2.1]octan-3-yl)-8-fluoropyrido[4,3-d]pyrimidin-7-yl)-5-ethynylnaphthalen-2-ol] it is 763 nM.
The figure for `CCCOc1nc(N2C[C@H]3CC[C@@H](C2)N3)c2cnc(-c3cc(O)cc4ccccc34)c(F)c2n1` [Example 47, 4-(4-((1R,5S)-3,8-diazabicyclo[3.2.1]octan-3-yl)-8-fluoro-2-propoxypyrido[4,3-d]pyrimidin-7-yl)naphthalen-2-ol] is 4450 nM; for `Cc1c(Cl)cccc1-c1ncc2c(N3C[C@H]4CC[C@@H](C3)N4)nc(OCC34CCCN3CCC4)nc2c1F` [Example 274, 4-((1R,5S)-3,8-diazabicyclo[3.2.1]octan-3-yl)-7-(3-chloro-2-methylphenyl)-8-fluoro-2-((hexahydro-1H-pyrrolizin-7a-yl)methoxy)pyrido[4,3-d]pyrimidine] it is 4710 nM.
`CC(C)c1c(F)cc(O)cc1-c1ncc2c(N3C[C@H]4CC[C@@H](C3)N4)nc(OC[C@@]34CCCN3C[C@H](F)C4)nc2c1F` [Example 290, 3-(4-((1R,5S)-3,8-diazabicyclo[3.2.1]octan-3-yl)-8-fluoro-2-(((2R,7aS)-2-fluorotetrahydro-1H-pyrrolizin-7a(5H)-yl)methoxy)pyrido[4,3-d]pyrimidin-7-yl)-5-fluoro-4-isopropylphenol] showed an IC50 of 110 nM.
